Data: patent US5821258A, “Phenylbenzimidazole derivatives” (priority 1994, dated 1998)
Converted amounts (≈) assume the structure as drawn. Structures can show the parent of a compound that is named as a salt.

Legend:
[1] = system: B16 melanoma cells; test: in vitro inhibitory activity on tumor cell growth, B16 melanoma cells (Test Example 2); assay type: cell-based; conditions: B16 mouse melanoma cells, 37° C., 3 days, 5% CO2, concentration for 50% growth inhibitory effect
Protocol: The anticancer activity of each compound will be described. […] This test was carried out by measuring an in vitro inhibitory activity on tumor cell growth. That is to say, the B16 melanoma cells of a mouse were planted on a culture plate having 96 cells, and a compound was then added after one day and the cells were cultured at 37° C. for 3 days in 5% CO2. Next, a compound concentration (IC50) necessary to accomplish a 50% growth inhibitory effect was determined in accordance with a procedure described in Cancer. Res., Vol. 48, p. 589-601 (1988). The unit of the drug concentration was μg/ml. The result of distamycin is also simultaneously shown as a comparative example.

[2] = system: mouse colon cancer cells of Colon 26; test: Anti-tumor test in mice implanted with Colon 26 cells, tumor weight on 15th day (Test Example 3); assay type: in vivo; conditions: tail vein on 1st day, Colon 26 s.c. in female CDF1 mouse, tumor weight on 15th day vs control 100%
Protocol: A cell floating solution having 1×10^7 mouse colon cancer cells of Colon 26 per ml of HBSS (Hanks' Balanced Salt Solution) was prepared. Next, 0.1 ml of this cell floating solution was implanted in the side abdomen hypodermis of a female CDFl mouse (0 day). On the day after the tumor implantation (1st day), the weight of the mouse was measured, and a solution of a compound (a 5% glucose solution containing 5% Tween 80) was administered into the tail vein of the mouse. On the 15th day, the tumor was extracted, and its weight was then measured.
An average tumor weight ratio of each experimental sample was calculated as a T/C value on the assumption that the average tumor weight ratio of a control to which any compound was not administered was 100%.
The T/C values correspond to compound numbers, respectively, and each value in the parentheses represents the concentration of the drug at the time when its T/C value was obtained.

[3] = system: poly d(A-T)-d(A-T); test: Linkage to DNA, Tm value comparison with and without compound (Test Example 1); assay type: binding; conditions: poly d(A-T)-d(A-T) in buffer; difference from Tm of the DNA alone
Protocol: Investigation was made on the linkage of each compound to DNA. The test was carried out by comparing a Tm value in the case that the compound was added to the DNA solution with a Tm value in the case that no compound was added thereto.
That is to say, poly d(A-T)-d(A-T) was used as the DNA. This DNA was dissolved in a buffer solution and the compound was further added thereto, and the Tm value was then measured. On the other hand, the Tm of the DNA alone was measured, and a difference (ΔTm) was then calculated. For the measurement, a U-3200 model spectrophotometer made by Hitachi, Ltd. was used, and for the control of temperature, SPR-10 model made by Hitachi, Ltd. was used.

| SMILES | IC50 (anti-tumor activity) [1] [µg/mL] | other results |
| --- | --- | --- |
| N=C(N)NCCCC(=O)Nc1cccc(-c2nc3cc(C(=O)Nc4ccc(N(CCCl)CCCl)c(Cl)c4)ccc3[nH]2)c1 [Compound 2016, 1H-2-[3-[[4-(guanidino)butyryl]amino]phenyl]benzimidazole-5-[N-[3-chloro-4-[N,N-bis(2-chloroethyl)amino]phenyl]]carboxyamide dihydrochloride] | 2.08 |  |
| N=C(N)NCC(=O)Nc1cccc(-c2nc3cc(C(=O)Nc4ccc(N(CCCl)CCCl)c(Cl)c4)ccc3[nH]2)c1 [Compound 2006, 1H-2-[3-(guanidinoacetylamino)phenyl]benzimidazole-5-[N-[3-chloro-4-[N,N-bis(2-chloroethyl)amino]phenyl]]carboxyamide dihydrochloride] | 0.65 | T/C ([2]; 10 mg/kg): 21% |
| Cc1cc(NC(=O)c2ccc3[nH]c(-c4cccc(NC(=O)Cc5cccnc5)c4)nc3c2)ccc1N(CCCl)CCCl [Compound 2063, 1H-2-[3-(3-pyridylacetylamino)phenyl]benzimidazole-5-[N-[3-methyl-4-[N,N-bis(2-chloroethyl)amino]phenyl]]carboxyamide] | 3.48 (≈ 5.79 µM) |  |
| COc1cccc2c1C(=O)c1c(O)c3c(c(O)c1C2=O)C[C@@](O)(C(=O)CO)C[C@@H]3O[C@H]1C[C@H](N)[C@H](O)[C@H](C)O1 [Adriamycin, adriamycin, reference compound] |  | T/C ([2]; 20 mg/kg): 29% |
| CN(C)CCCNC(=O)c1ccc2[nH]c(-c3ccc(NC(=O)CCCc4ccc(N(CCCl)CCCl)cc4)cc3)nc2c1 [Compound 29, 1H-2-[4-[[4-[4-[N,N-bis(2-chloroethyl)amino]phenyl]butyryl]amino]phenyl]benzimidazole-5-[N-[3-(dimethylamino)propyl]]carboxyamide] | 3.05 (≈ 4.89 µM) |  |
| N=C(N)NCC(=O)Nc1ccc(-c2nc3cc(C(=O)Nc4ccc(N(CCCl)CCCl)cc4)ccc3[nH]2)cc1 [Compound 1001, 1H-2-[4-(guanidinoacetylamino)phenyl]benzimidazole-5-[N-[4-[N,N-bis(2-chloroethyl)amino)phenyl]]carboxyamide dihydrochloride] | 0.36 |  |
| Cc1cc(NC(=O)c2ccc3[nH]c(-c4cccc(NC(=O)CCN5CCOCC5)c4)nc3c2)ccc1N(CCCl)CCCl [Compound 2053, 1H-2-[3-[(3-morpholinopropionyl)amino]phenyl]benzimidazole-5-[N-[4-[N,N-bis(2-chloroethyl)]amino-3-methyl]phenyl]carboxyamide hydrochloride] | 0.33 |  |
| N=C(N)NCCCC(=O)Nc1cccc(-c2nc3cc(C(=O)Nc4ccc(N(CCCl)CCCl)cc4)ccc3[nH]2)c1 [Compound 2011, 1H-2-[3-[4-(guanidino)butyryl]amino]phenyl]benzimidazole-5-[N-[4-[N,N-bis(2-chloroethyl)amino)phenyl]]carboxyamide dihydrochloride] | 0.97 |  |
| N=C(N)NCC(=O)Nc1ccc(-c2nc3cc(C(=O)Nc4cccc(N(CCCl)CCCl)c4)ccc3[nH]2)cc1 [Compound 1010, 1H-2-[4-(guanidinoacetylamino)phenyl]benzimidazole-5-[N-[3-[N,N-bis(2-chloroethyl)amino]phenyl]]carboxyamide] | 3.19 (≈ 5.62 µM) |  |
| C[S+](C)CCC(=O)Nc1cccc(-c2nc3cc(C(=O)Nc4ccc(N(CCCl)CCCl)c(Cl)c4)ccc3[nH]2)c1 [Compound 2046, 2-[N-[3-[5-[N-[3-chloro-4-[N,N-bis(2-chloroethyl)amino]phenyl]carbamoyl]-1H-benzimidazole-2-yl]phenyl]carbamoylethyl]dimethylsulfonium iodide] | 0.39 |  |
| N=C(N)NCC(=O)Nc1cccc(-c2nc3cc(C(=O)Nc4ccc(N(CCCl)CCCl)cc4)ccc3[nH]2)c1 [Compound 2001, 1H-2-[3-(guanidinoacetylamino)phenyl]benzimidazole-5-[N-[4-[N,N-bis(2-chloroethyl)amino)phenyl]]carboxyamide dihydrochloride] | 0.82 | ΔTm [3]: 14 °C; T/C ([2]; 30 mg/kg): 13% |
| Cc1cc(NC(=O)c2ccc3[nH]c(-c4cccc(NC(=O)CNC(=N)N)c4)nc3c2)ccc1N(CCCl)CCCl [Compound 2004, 1H-2-[3-(guanidinoacetylamino)phenyl]benzimidazole-5-[N-[3-methyl-4-[N,N-bis(2-chloroethyl)amino]phenyl]]carboxyamide dihydrochloride] | 0.53 |  |
| Cn1cc(NC(=O)c2cc(NC(=O)c3cc(NC=O)cn3C)cn2C)cc1C(=O)NCCC(=N)N [Distamycin, distamycin, reference compound] |  | IC50 ([1]; 72 h, read-out: IC50 (anti-tumor activity)): 36 µg/mL (≈ 74.8 µM) |
| Cc1cc(NC(=O)c2ccc3[nH]c(-c4cccc(NC(=O)CCCNC(=N)N)c4)nc3c2)ccc1N(CCCl)CCCl [Compound 2014, 1H-2-[3-[[4-(guanidino)butyryl]amino]phenyl]benzimidazole-5-[N-[3-methyl-4-[N,N-bis(2-chloroethyl)amino]phenyl]]carboxyamide dihydrochloride] | 1.18 |  |
| C[S+](C)CCC(=O)Nc1cccc(-c2nc3cc(C(=O)Nc4ccc(N(CCCl)CCCl)cc4)ccc3[nH]2)c1 [Compound 2041, 2-[N-[3-[5-[N-[4-[N,N-bis(2-chloroethyl)amino]phenylnyl]carbamoyl]-1H-benzimidazole-2-yl]phenyl]]carbamoylethyl-dimethylsulfonium iodide] | 0.37 |  |
| N=C(N)CCNC(=O)c1ccc2[nH]c(-c3cccc(NC(=O)CCCc4ccc(N(CCCl)CCCl)cc4)c3)nc2c1 [Compound 47, 1H-2-[3-[[4-[4-[N,N-bis(2-chloroethyl)amino]phenyl]butyryl]amino]phenyl]benzimidazole-5-[N-(2-amidinoethyl]carboxyamide hydrochloride] | 0.38 |  |
| N=C(N)CCNC(=O)c1ccc2[nH]c(-c3ccc(NC(=O)CCCc4ccc(N(CCCl)CCCl)cc4)cc3)nc2c1 [Compound 2, 1H-2-[4-[[4-[4-[N,N-bis(2-chloroethyl)amino]phenyl]butyryl]amino]phenyl]benzimidazole-5-[N-(2-amidinoethyl]carboxyamide hydrochloride] | 0.58 |  |
| CN(C)CCCC(=O)Nc1cccc(-c2nc3cc(C(=O)Nc4ccc(N(CCCl)CCCl)cc4)ccc3[nH]2)c1 [Compound 2031, 1H-2-[3-[[4-(dimethylamino)butyryl]amino]phenyl]benzimidazole-5-[N-[4-[N,N-bis(2-chloroethyl)amino)phenyl]]carboxyamide dihydrochloride] | 1.56 |  |
| O=C(CCN1CCOCC1)Nc1cccc(-c2nc3cc(C(=O)Nc4ccc(N(CCCl)CCCl)cc4)ccc3[nH]2)c1 [Compound 2051, 1H-2-[3-[(3-morpholinopropionyl)amino]phenyl]benzimidazole-5-[N-[4-[N,N-bis(2-chloroethyl)amino]phenyl]]carboxyamide hydrochloride] | 0.49 |  |
| O=C(CCN1CCOCC1)Nc1cccc(-c2nc3cc(C(=O)Nc4ccc(N(CCCl)CCCl)c(Cl)c4)ccc3[nH]2)c1 [Compound 2054, 1H-2-[3-[(3-morpholinopropionyl)amino]phenyl]benzimidazole-5-[N-[3-chloro-4-[N-bis(2-chloroethyl)amino]phenyl]]carboxyamide hydrochloride] | 0.41 |  |
| Cc1cc(NC(=O)c2ccc3[nH]c(-c4cccc(NC(=O)CC[S+](C)C)c4)nc3c2)ccc1N(CCCl)CCCl.[I-] [Compound 2044, 2-[N-[3-[5-[N-[3-methyl-4-[N,N-bis(2-chloroethyl)amino]phenyl]carbamoyl]-1Hbenzimidazole-2-yl]phenyl]]carbamoylethyl-dimethylsulfonium iodide] | 0.72 |  |
